Experimental data: patent publication US8361999B2, “Methods of treating cholesterol gallstone disease with ezetimibe” (Pontificia Universidad Catolica de Chile, priority 2005, dated 2013)

What was measured:
C57BL/6J mice [1] = experiment: Plasma cholesterol and plasma lipoprotein profile, protocol #1; format: in vivo, mouse
Procedure: (§1) Surgery and sample harvest. The groups were maintained for 14 days (protocol #1) or 30 days (protocol #2) in the different experimental conditions. During the last three days of the protocols, 24 h depositions were collected from the different groups (pool) to determine the fecal excretion of neutral sterols (cholesterol) and acidic sterols (bile salts). At the end of the time established in the protocols, the mice were anesthetized (between 08:00-10:00 AM) with an intraperitoneal pentobarbital injection in doses of 4.5 mg per 100 gr body weight (Amigo et al., 2000) and subjected to surgery. Standardized surgery consists in an extended […] and visualization of abdominal organs, including liver, biliary tree and gallbladder. First, we performed a resection of the gallbladder (cholecystectomy), with the cystic duct previously ligated (Amigo et al., 2002; Amigo et al., 2000; Amigo et al., 2003b). The gallbladder is removed and visually inspected to determine the presence of gallstones. Then, the gallbladder bile is extracted to analyze the presence of cholesterol crystals in the fresh samples under the microscope with polarized light (20×). Aliquots are stored at −20° C. for subsequent chemical analysis. Afterwards, the common biliary duct is cannulated (biliary fistula) with a P-10 polyethylene cannula to collect bile during 15 minutes, determine bile flow by gravimetry (1 g bile=1 ml; bile flow is expressed as μl/min/g of mouse liver) and for posterior chemical analysis of biliary lipids and glutathione, as specified later. […] Then, the liver is removed, weighted, frozen in liquid nitrogen and stored at −80 for subsequent analyses. The plasma is separated by centrifugation at 1,500 rpm and stored at −80° C. for later analysis. The animal protocols were approved by our institution Ethics Committee and the animals were treated according to international care rules for experimental animals.
Intestinal absorption of cholesterol and bile salts. The capacity of Ezetimibe to inhibit cholesterol and bile salt absorption was indirectly determined by quantification of neutral sterols (cholesterol) and acidic sterols (bile acids) present in the feces collected on day 12, 13 and 14 of the experiment (three days). In order to determine cholesterol (neutral sterols) fecal excretion, the feces were dried at 50° C. for three days and then weighted to obtain an average of fecal excretion per day (in grams). The feces were homogenized in a mortar, and 5 ml 2N NaOH:methanol, 1:1 are added per 100 mg (dry weight) aliquots of the homogenate. The sample is vortex and incubated at 60° C. for 1 h for saponification, then it is cooled and 5 ml petroleum ether is added followed by vigorous agitation to obtain the separation of the hydrophobic and hydrophilic phases. The samples are then centrifuged at 1,000 rpm for 10 minutes and the hydrophobic phase (upper layer) is recovered. Second and third extractions are performed by adding 5 ml petroleum ether to the hydrophilic phase. The hydrophobic phases are dried under gaseous nitrogen and the lipids are resuspended in 1 ml chloroform. 50 μl aliquots, in duplicate, are dried at room temperature, and total cholesterol is quantified according to the enzymatic method described above. The values obtained are expressed as μmoles cholesterol/day/100 g of mouse (Miettinen et al., 1965). […]

cholesterol absorption = settings: relative to SCH 48461; cited from earlier work
C57BL/6J mice [2] = experiment: Biliary flow and hepatic secretion of biliary lipids; format: in vivo, mouse
Procedure: as §1
Intestinal absorption of cholesterol and bile salts. The capacity of Ezetimibe to inhibit cholesterol and bile salt absorption was indirectly determined by quantification of neutral sterols (cholesterol) and acidic sterols (bile acids) present in the feces collected on day 12, 13 and 14 of the experiment (three days). In order to determine cholesterol (neutral sterols) fecal excretion, the feces were dried at 50° C. for three days and then weighted to obtain an average of fecal excretion per day (in grams). […] 50 μl aliquots, in duplicate, are dried at room temperature, and total cholesterol is quantified according to the enzymatic method described above. The values obtained are expressed as μmoles cholesterol/day/100 g of mouse (Miettinen et al., 1965). […]

Ntcp = experiment: Hepatic expression of bile salts transporter Ntcp (Western blot); format: in vivo, mouse
Text: Expression of Specific Bile Salts (Ntcp, Bsep), Phospholipid (MDR2) and Organic Anions or Glutathione (MRP2); And Determination of Glutathione Synthesis (Gluthamylcystein-Synthetase (GGCS)).
Western Blot analysis. We evaluated protein expression levels of the bile salts transporters Ntcp (sinusoidal pole) and Bsep (cannicular pole) by Western blotting in total liver membranes or liver plasma membranes from mice treated with the different diets. Total membranes were obtained from liver fragments homogenized in Tris-HCl pH 7.5, MgCl2 and sucrose. The homogenates were centrifuged at 1,000 g to separate nuclei, and the supernatants were then centrifuged at 100,000 g. The pellet, containing the total membranes, was resuspended in the buffer described above and proteins were quantified by the Bradford method. Aliquots containing 50 μg protein were separated by SDS-PAGE and transfer to nitrocellulose. The membranes were incubated in buffer TBS-T (Tris-HCl pH 7.5, NaCl and Tween-20), milk 5% w/v plus the antibodies to evaluate the different proteins (Bsep, Ntcp). The secondary antibodies were IgG anti rabbit or anti mouse coupled to peroxidase. The protein signals were detected by the ECL method.

O=C1[C@H](CC[C@H](O)c2ccc(F)cc2)[C@@H](c2ccc(O)cc2)N1c1ccc(F)cc1 [Ezetimibe, (−)-1-(4-fluorophenyl)-(3R)-[3-(4-fluorophenyl)-(.S)-hydroxypropyl]-(4S)-(4-hydroxyphenyl)-2-azetidinone]
Plasma Cholesterol (C57BL/6J mice [1]; Chow + Ezetimibe, 14 days): 86.21 ± 13.8 mg/dL
Plasma Cholesterol (C57BL/6J mice [1]; Lithogenic + Ezetimibe, 14 days): 161.38 ± 38.96 mg/dL
plasma lipoprotein profile, ezetimibe groups vs controls (C57BL/6J mice [1]; chow and lithogenic diets, 14 days (FIG. 2)): did not show significant differences
concentration of total cholesterol in plasma, with vs without ezetimibe (C57BL/6J mice [1]; control diet, 14 days): similar
increase of plasma cholesterol concentration, with vs without ezetimibe (C57BL/6J mice [1]; lithogenic diet, 14 days): similarly
inhibitory activity in cholesterol absorption higher than predecessor analog (SCH 48461) (cholesterol absorption): 400 times
biliary flow larger than in the group on lithogenic diet without ezetimibe (significant) (C57BL/6J mice [2]; lithogenic diet): 50-60%
secretion of bile salts and phospholipids vs group without ezetimibe (C57BL/6J mice [2]; lithogenic diet (FIG. 3)): increase
secretion of biliary cholesterol vs group without ezetimibe (C57BL/6J mice [2]; lithogenic diet (FIG. 3)): did not associate to a greater secretion
increase in biliary flow (slight, non-significant) (C57BL/6J mice [2]; low cholesterol control diet): 30-40%
hepatic expression of Ntcp, lithogenic diet plus Ezetimibe vs lithogenic diet (Ntcp; 14 days): no significant differences
decrease of Ntcp protein expression level on a lithogenic diet (Ntcp; FIG. 6 B, lithogenic diet with Ezetimibe vs plus water): significantly attenuated
